According to patent US20250354979A1, “DRUG EVALUATION METHOD, REAGENT, AND KIT” (FUJIFILM Corporation, priority 2023, published 2025):

Key:
[1] = test system: human iPS cell-derived myocardial cells; experiment: Heart rate of myocardial cells by MEA extracellular potential, serum-free culture medium without additive; assay type: cell-based; conditions: no pretreatment
Experimental: (§1) Reference Example 1: Method and results of evaluating effect on heart rate in a case where muscarinic receptor agonist (carbachol) is added to serum-free culture medium Human iPS cell-derived myocardial cells (iCell myocardial cells 2.0, manufactured by FUJIFILM Cellular Dynamics, Inc.) in a frozen state were thawed, suspended in a thawing culture medium (iCell myocardial cell thawing culture medium, manufactured by FUJIFILM Cellular Dynamics, Inc.), and then seeded at a cell density of 50,000 cells per well on a MEA plate (Cyto View MEA 48, manufactured by Axion BioSystems, Inc.). The seeding density of myocardial cells in the vicinity of the electrode was 2,736 cells/mm^2. […]
(§2) On the day of measurement, the MEA plate on which the human iPS cell-derived myocardial cells were cultured was placed in an MEA system (Maestro Pro, manufactured by Axion BioSystems, Inc.), and the extracellular potential was measured after 20 minutes (medium control, carbachol concentration: 0 μmol/L). Subsequently, 0.01 μmol/L of carbachol (manufactured by Tokyo Chemical Industry Co., Ltd.) was added to the MEA plate, and then the extracellular potential was measured after 20 minutes from the addition. Similarly, carbachol was added to give concentrations of 0.1 μmol/L, 1 μmol/L, and 10 μmol/L, and then the extracellular potential was measured at each concentration after 20 minutes from the addition. […]

[2] = test system: human iPS cell-derived myocardial cells; experiment: Heart rate of myocardial cells by MEA, maintenance culture medium containing serum; assay type: cell-based
Description: as §1, with “Comparative” for “Reference”, “decrease in” for “effect on”, “by” for “in a case where”, “using maintenance” for “is added to serum-free”, “2,798” for “2,736”
as §2, with “concentration.” for “concentration after 20 minutes from the addition.”

SMILES	increase in heart rate ([1]; atropine 0.01-1 μmol/L)	increase in heart rate ([2]; atropine 0.01-1 μmol/L)	decrease in heart rate ([1]; carbachol 0.01-10 μmol/L, 20 minutes after each addition, vs medium control)	decrease in heart rate ([2]; carbachol 0.01-10 μmol/L)
CN1[C@@H]2CC[C@H]1C[C@@H](OC(=O)C(CO)c1ccccc1)C2 (stereo partly shown) [atropine]	No clear increase in heart rate	No clear increase in heart rate		
C[N+](C)(C)CCOC(N)=O [carbachol]			up to 15%	No clear decrease in heart rate
